Measured values taken from ChEMBL document CHEMBL1156589, “2-Arylpyrimidines: novel CRF-1 receptor antagonists” (Bioorg Med Chem Lett, 2008).
pIC50, pKi: −log10 of the molar value. Values after ≈ are worked out from the molar mass of the structure shown.

Assays:
[1] = Clearance in Sprague-Dawley rat at 20 mg/kg, po and 3 mg/kg, iv; format: ADME, organism-based; conditions: in vivo
[2] = biological target: T1, Corticotropin-releasing factor receptor 1 (Homo sapiens, UniProt P34998); experiment: Antagonist activity at CRF1 receptor expressed in mouse AtT20 cells assessed as inhibition of sauvagine-stimulated cAMP accumulation; format: functional, cell-based
T1 sequence (P34998 whole entry): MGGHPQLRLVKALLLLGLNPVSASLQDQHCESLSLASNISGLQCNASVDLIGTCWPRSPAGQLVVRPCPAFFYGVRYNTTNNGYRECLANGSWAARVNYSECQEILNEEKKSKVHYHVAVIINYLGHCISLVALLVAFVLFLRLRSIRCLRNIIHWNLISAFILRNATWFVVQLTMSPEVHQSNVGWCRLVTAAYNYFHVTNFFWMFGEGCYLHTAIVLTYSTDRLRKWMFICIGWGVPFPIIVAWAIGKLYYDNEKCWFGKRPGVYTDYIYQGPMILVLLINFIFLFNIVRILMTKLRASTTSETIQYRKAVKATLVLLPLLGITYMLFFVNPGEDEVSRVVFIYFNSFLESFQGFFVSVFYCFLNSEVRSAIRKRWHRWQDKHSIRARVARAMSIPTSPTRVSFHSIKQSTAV

[3] = Volume of distribution in Sprague-Dawley rat at 20 mg/kg, po and 3 mg/kg, iv; format: ADME, organism-based; conditions: in vivo
[4] = Half life in Sprague-Dawley rat at 20 mg/kg, po and 3 mg/kg, iv; format: ADME, organism-based; conditions: in vivo
[5] = Oral bioavailability in Sprague-Dawley rat at 20 mg/kg; format: ADME, organism-based; conditions: in vivo
[6] = Cmax in Sprague-Dawley rat at 20 mg/kg, po and 3 mg/kg, iv; format: ADME, organism-based; conditions: in vivo
[7] = Solubility in 0.1 N hydrochloric acid; format: physicochemical
[8] = Tmax in Sprague-Dawley rat at 20 mg/kg, po and 3 mg/kg, iv; format: ADME, organism-based; conditions: in vivo
[9] = biological target: T1, Corticotropin-releasing factor receptor 1; experiment: biochemical; format: cell-based, IMR-32
Description: Displacement of [125I]sauvagine from human CRF1 receptor expressed in IMR32 cells

Row | pKi [9] | Compound | other results
1 |  | CCCN(CCC)c1c(C)nc(-c2c(C)cc(C)cc2OC)c2ccccc12 | clearance [1]: 14.5 mL/min/kg; pIC50 [2]: 7.92; Vd [3]: 13 L/kg; half-life [4]: 5.4 h; bioavailability [5]: 5%; Cmax [6]: 387 ng/mL; solubility [7]: < 0.5 µg/mL; Tmax [8]: 0.7 h
2 | 7.03 | CCC(CC)Nc1c(C)nc(-c2c(C)cc(C)cc2OC)nc1OC | 
3 | 5.94 | CCCN(CCC)c1c(CC(C)O)nc(-c2c(C)cc(C)cc2OC)nc1OC (stereo not given) | 
4 | < 5.00 | CCCN(CCC)c1c(C)nc(-c2ccc(Cl)cc2Cl)nc1OC | 
5 | < 5.30 | CCCN(CCC)c1c(C)nc(-c2c(C)cc(C)cc2OC)nc1OC(C)C | 
6 | 5.79 | CCCN(CCC)c1c(C)nc(-c2c(C)cc(C)cc2OC)nc1OCCO | 
7 | 7.12 | CCCc1nc(-c2c(C)cc(C)cc2OC)nc(OC)c1N(CCC)CCC | 
8 | 7.82 | CCCN(CCC)c1c(C)nc(-c2c(C)cc(C)cc2OC)nc1OC | 
9 | < 5.00 | CCCNc1c(C)nc(-c2c(C)cc(C)cc2OC)nc1OC | 
10 | < 5.00 | COc1cc(C)cc(C)c1-c1nc(C)c(NCC(C)(C)C)c(OC)n1 | 
11 | 8.22 | CCCN(CCC)c1c(C)nc(-c2c(OC)cc(C(F)(F)F)cc2C(F)(F)F)nc1OC | 
12 | 8.10 | CCC(CC)Oc1c(C)nc(-c2c(C)cc(C)cc2OC)nc1OC | pIC50 [2]: 7.72
13 | 8.05 | CCC(CC)Oc1c(C)nc(-c2c(OC)cc(Cl)cc2OC)nc1OC | clearance [1]: 13.6 mL/min/kg; pIC50 [2]: 8.15; Vd [3]: 14 L/kg; half-life [4]: 8.3 h; bioavailability [5]: 6%; Cmax [6]: 194 ng/mL; solubility [7]: 28 µg/mL (≈ 73.5 µM); Tmax [8]: 1.8 h
14 | 9.70 | CCC(CC)c1cc(C)nn2c(-c3sc(N4CCOCC4)nc3Cl)c(C)nc12 | 
15 | 7.80 | CCCN(CCC)c1c(C)nc(-c2c(C)cc(C)cc2OC)nc1OCC | 
16 | 7.48 | CCCN(CCC)c1c(C)nc(-c2c(C)cc(C)cc2OC)nc1Cl | 
17 | 6.25 | CCCN(CCC)c1cnc(-c2c(C)cc(C)cc2OC)nc1C | 
18 | 8.05 | CCC(CC)Oc1c(C)nc(-c2c(OC)cc(C(F)F)cc2OC)nc1OC | 
19 | 6.56 | CCCN(CCC)c1c(C)nc(-c2c(OC)cccc2OC)nc1OC | 
20 | 6.22 | CCCN(CCC)c1c(CC(C)(C)O)nc(-c2c(C)cc(C)cc2OC)nc1OC | 
21 | 7.66 | CCCN(CCC)c1c(CC)nc(-c2c(C)cc(C)cc2OC)nc1OC | 
22 | 8.70 | CCCN(CCC)c1c(C)nc(-c2c(OC)cc(Cl)cc2OC)nc1OC | clearance [1]: 21 mL/min/kg; pIC50 [2]: 9.00; Vd [3]: 12 L/kg; half-life [4]: 2.8 h; bioavailability [5]: 2%; Cmax [6]: 210 ng/mL; solubility [7]: 27 µg/mL (≈ 68.5 µM); Tmax [8]: 0.6 h
23 | 6.29 | CCCN(CCC)c1c(C)nc(-c2ccc(OC)cc2OC)nc1OC | 
24 | 6.45 | CCCN(CCC)c1c(C)nc(-c2c(C)cc(C)cc2C)nc1OC | 
25 | 7.28 | CCCOc1nc(-c2c(C)cc(C)cc2OC)nc(C)c1N(CCC)CCC | 
26 | 8.52 | CCCCN(CC)c1nc(C)nc2c1c(C)cn2-c1c(C)cc(C)cc1C [CP-154526] | 
